From paper PMC10224544, “Synthesis, Structural Elucidation and Pharmacological Applications of Cu(II) Heteroleptic Carboxylates” (Pharmaceuticals, 2023)

Tests used:
[1] = target: butyrylcholinesterase (BChE) (Equus caballus, UniProt P81908); test: biochemical; conditions: for inhibition of butyrylcholinesterase (% BChE activity): n = 3
Protocol: (§1) The enzymes acetylcholinesterase (AChE) and butyrylcholinesterase (BChE) play an important role in the transfer of signals and physiological function. They assist acetylcholine to hydrolyze and produce choline and acetyl group in synaptic region. So, they are considered as targets in the management of Alzheimer’s disease. Herein, the compounds under study were evaluated for their potential to inhibit acetylthiocholine iodide (AChI) and butyrylthiocholine iodide (BChI) enzymes.
(§2) The well-known Ellman’s assay was implemented to evaluate the inhibitory potential using acetylthiocholine iodide (AChI) and butyrylthiocholine iodide (BChI) as substrates, respectively. The basic principle of the assay is the hydrolysis of acetylthiocholine iodide and butyrylthiocholine iodide by their corresponding enzymes, resulting in the formation of 5-thio-2-nitrobenzoate anion.
(§3) To carry out the assay, 0.1 M buffer solution with pH 8 was prepared as per the cited literature where the pH was adjusted using KOH (potassium hydroxide). Using the freshly prepared buffer and following the dilution, final concentrations of 0.03 U/mL for AChE (518 U/mg solid) and 0.01 U/mL for BChE (7–16 U/mg) were obtained. […] After that, the final solution of each of the AChE and BChE was prepared in distilled water in the presence of […] DTNB and were stored at 8 °C. The experiment was performed by taking 205 µL of inhibitor (tested compound) along with 5 µL of prepared solutions of enzymes, followed by the addition of 5 μL DTNB reagent. They were then incubated for about 15 min in a water bath at a temperature of 30 °C. Later on, 5 µL substrate solution was added to them which were subjected to absorption check at 412 nm. […] The temperature of the spectrophotometer was adjusted at 30 °C and then, following the reaction time of 4 min, the absorbance values were noted after regular intervals. The experiment was repeated, and change in absorption with time was used to calculate the percentage activity of enzyme and enzyme inhibitor [59]. The p values, or calculated probability levels, are categorized as: 5% (p < 0.05), 1% (p < 0.01) and 0.1% (p < 0.001). p < 0.05 means statistically significant and p < 0.001 means highly statistically significant.

[2] = Hydrogen peroxide scavenging assay; conditions: for H2O2 free radical scavenging ability: mean ± S.E.M, n = 3
Protocol: In addition to DPPH the ligand acids and their complexes were also evaluated for their peroxide scavenging ability test. Hydrogen peroxide (H2O2) is a biologically important, non-radical reactive oxygen species (ROS) that can influence several cellular processes. It is a weak oxidizing agent and can inactivate a few enzymes directly, usually via oxidation of essential thiol (-SH) groups. It can cross cell membranes rapidly, and inside the cell, H2O2 probably reacts with Fe^2+ (and possibly Cu^2+) ions to form the hydroxyl radical, which may be the origin of many of its toxic effects. It is, therefore, biologically advantageous for cells to control the amount of hydrogen peroxide that is allowed to accumulate.
The ligand acids and their Cu(II) carboxylates were further subjected to H2O2 scavenging ability test potential by following the procedure as per cited literature. A 2 mM solution of H2O2 was made in 50 mM phosphate buffer having a pH 7.4. In the next step, 0.1 mL of the screened compounds was added to the 0.3 mL (50 mM) of phosphate buffer, then 0.6 mL of H2O2 was added and the solution was vortexed. After following the incubation period of 10 min, the absorption was 230 nm in comparison to the blank.

[3] = target: acetylcholinesterase (AChE) (Electrophorus electricus, UniProt O42275); test: biochemical; assay type: biochemical; conditions: for Inhibition of Acetylcholinesterase (%AChE Activity): n = 3
Protocol: The synthesized compounds were evaluated for acetylcholinesterase (ACh) and butyrylcholinesterase (BCh) enzyme inhibitory activities.
as §1, §2, §3

[4] = DPPH scavenging assay; conditions: for DPPH Free Radical Scavenging Ability: mean ± S.E.M, n = 3
Description: The antioxidant potential of the free acids and their Cu(II) carboxylates was explored via the DPPH method using ascorbic acid as a reference. The DPPH, with a single unpaired electron, is capable of accepting a hydrogen or electron and gives a strong absorption at 517 nm. The absorption generally decreases when it accepts a hydrogen or electron from an antioxidant, forming a stable molecule. The results given in Table 5 indicate that the compounds under study show a moderate level of antioxidant potential. This activity may be attributed to the various structural and electronic factors like coordination geometry, redox properties, chelate ring size, degree of unsaturation, etc.. The transfer of proton or electron from an antioxidant to DPPH results in the formation of species that undergo other reactions like coupling, fragmentation, and addition, which affect the rate and stoichiometry of the reaction.
The compounds under study were subjected to DPPH scavenging ability test as per cited literature. A 0.004% solution of reagent DPPH was added to the different concentrations of tested compounds (i.e., 125, 250, 500 and 1000 μg/mL) and the reaction mixture was incubated subsequently for about thirty minutes in dark. Ascorbic acid was used as positive control. The UV-3000 O.R.I. Germany was used to record the change in absorption of the reaction mixture at 517 nm and the percentage scavenging ability of the compounds under study was determined using formula: % scavenging activity =Absorbance of control−Absorbance of compounds /Absorbance of control×100
The experiments were repeated thrice. The GraphPad Prism® (version 4.0, Sandiego, CA, USA) was used to calculate the IC50 values.

[5] = DPPH scavenging assay; conditions: Comp. Conc. 62.5 µg/mL; mean ± S.E.M, n = 3

acetylcholinesterase (AChE), sequence (O42275 24-633): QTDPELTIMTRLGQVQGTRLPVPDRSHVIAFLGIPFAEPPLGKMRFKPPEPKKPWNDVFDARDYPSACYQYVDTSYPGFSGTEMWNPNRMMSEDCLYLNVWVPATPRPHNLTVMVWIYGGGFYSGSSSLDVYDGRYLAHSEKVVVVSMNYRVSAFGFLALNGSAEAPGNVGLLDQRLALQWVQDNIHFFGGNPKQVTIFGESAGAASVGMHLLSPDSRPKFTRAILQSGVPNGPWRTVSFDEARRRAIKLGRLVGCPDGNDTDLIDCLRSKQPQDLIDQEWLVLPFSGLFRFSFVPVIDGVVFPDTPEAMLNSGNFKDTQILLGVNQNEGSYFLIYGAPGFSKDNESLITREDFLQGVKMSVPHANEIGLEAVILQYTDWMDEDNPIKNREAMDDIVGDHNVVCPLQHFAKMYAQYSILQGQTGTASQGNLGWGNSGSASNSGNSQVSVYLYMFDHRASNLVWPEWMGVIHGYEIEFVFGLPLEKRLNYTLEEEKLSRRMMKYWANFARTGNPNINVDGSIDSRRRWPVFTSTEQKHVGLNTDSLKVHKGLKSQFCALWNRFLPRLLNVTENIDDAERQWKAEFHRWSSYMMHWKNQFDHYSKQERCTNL
butyrylcholinesterase (BChE), sequence (P81908 whole entry): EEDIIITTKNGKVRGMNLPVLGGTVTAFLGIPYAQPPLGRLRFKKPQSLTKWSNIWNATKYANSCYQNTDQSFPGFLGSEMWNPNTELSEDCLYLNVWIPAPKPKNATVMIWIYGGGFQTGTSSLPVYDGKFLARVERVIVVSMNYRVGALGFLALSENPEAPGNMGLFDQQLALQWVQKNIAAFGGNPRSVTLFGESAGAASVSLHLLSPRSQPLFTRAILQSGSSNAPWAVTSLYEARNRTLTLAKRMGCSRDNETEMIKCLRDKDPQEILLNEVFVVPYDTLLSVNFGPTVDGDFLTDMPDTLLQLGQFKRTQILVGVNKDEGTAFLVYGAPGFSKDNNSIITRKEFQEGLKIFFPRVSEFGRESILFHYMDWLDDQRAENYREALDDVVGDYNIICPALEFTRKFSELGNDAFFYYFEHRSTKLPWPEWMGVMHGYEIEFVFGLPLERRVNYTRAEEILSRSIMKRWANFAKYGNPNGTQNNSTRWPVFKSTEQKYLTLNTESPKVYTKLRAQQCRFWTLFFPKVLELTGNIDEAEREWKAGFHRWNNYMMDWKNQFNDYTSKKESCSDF

| Structure (SMILES) | IC50, inhibition of butyrylcholinesterase [1] [µg/mL] | inhibition of butyrylcholinesterase (% BChE activity) ([1]; Comp. Conc. 62.5 µg/mL) [%] | inhibition of butyrylcholinesterase (% BChE activity) ([1]; Comp. Conc. 125 µg/mL) [%] | inhibition of butyrylcholinesterase (% BChE activity) ([1]; Comp. Conc. 250 µg/mL) [%] | inhibition of butyrylcholinesterase (% BChE activity) ([1]; Comp. Conc. 500 µg/mL) [%] | inhibition of butyrylcholinesterase (% BChE activity) ([1]; Comp. Conc. 1000 µg/mL) | IC50, H2O2 free radical scavenging ability [2] [µg/mL] | H2O2 free radical scavenging ability ([2]; Comp. Conc. 62.5 µg/mL) [%] | H2O2 free radical scavenging ability ([2]; Comp. Conc. 125 µg/mL) [%] | H2O2 free radical scavenging ability ([2]; Comp. Conc. 250 µg/mL) [%] | H2O2 free radical scavenging ability ([2]; Comp. Conc. 500 µg/mL) [%] | H2O2 free radical scavenging ability ([2]; Comp. Conc. 1000 µg/mL) | Inhibition of Acetylcholinesterase (%AChE Activity) ([3]; Comp. Conc. 62.5 µg/mL) [%] | Inhibition of Acetylcholinesterase (%AChE Activity) ([3]; Comp. Conc. 125 µg/mL) [%] | Inhibition of Acetylcholinesterase (%AChE Activity) ([3]; Comp. Conc. 250 µg/mL) | Inhibition of Acetylcholinesterase (%AChE Activity) ([3]; Comp. Conc. 500 µg/mL) | Inhibition of Acetylcholinesterase (%AChE Activity) ([3]; Comp. Conc. 1000 µg/mL) [%] | IC50, DPPH Free Radical Scavenging Ability [4] [µg/mL] | DPPH Free Radical Scavenging Ability ([4]; Comp. Conc. 125 µg/mL) [%] | DPPH Free Radical Scavenging Ability ([4]; Comp. Conc. 250 µg/mL) [%] | also measured |
| --- | --- | --- | --- | --- | --- | --- | --- | --- | --- | --- | --- | --- | --- | --- | --- | --- | --- | --- | --- | --- | --- |
| N#Cc1cccnc1.N#Cc1cccnc1.O=C([O-])Cc1cccc(Cl)c1.O=C([O-])Cc1cccc(Cl)c1.O=C([O-])Cc1cccc(Cl)c1.O=C([O-])Cc1cccc(Cl)c1.[Cu+2].[Cu+2] [Complex 4, Cu2(3-ClC6H4COO)4(3-CNPy)2] | 03 | 68.52 ± 0.38 | 72.64 ± 0.16 | 77.61 ± 1.70 | 81.94 ± 0.45 | 86.47 ± 0.22 ^⸸ % | 8.71 | 63.47 ± 0.56 | 67.74 ± 0.61 | 73.67 ± 0.61 | 78.76 ± 0.58 | 85.00 ± 0.30 ^⸸ % | 67.90 ± 1.16 | 72.34 ± 0.55 | 78.36 ± 0.49 ^⸸ % | 83.39 ± 0.49 % | 89.39 ± 0.60 | 8.45 | 68.30 ± 0.64 | 73.34 ± 0.63 | IC50, Inhibition of Acetylcholinesterase [3]: 6 µg/mL; DPPH Free Radical Scavenging Ability ([4]; Comp. Conc. 500 µg/mL): 78.30 ± 0.64 %; DPPH Free Radical Scavenging Ability ([4]; Comp. Conc. 1000 µg/mL): 83.17 ± 0.72 %; DPPH Free Radical Scavenging Ability [5]: 61.93 ± 1.13 % |
| N#Cc1ccncc1.N#Cc1ccncc1.O=C([O-])Cc1cccc(Cl)c1.O=C([O-])Cc1cccc(Cl)c1.O=C([O-])Cc1cccc(Cl)c1.O=C([O-])Cc1cccc(Cl)c1.[Cu+2].[Cu+2] [Complex 5, Cu2(3-ClC6H4COO)4(4-CNPy)2] | 04 | 72.74 ± 0.61 | 76.54 ± 0.50 | 81.48 ± 0.64 | 86.86 ± 0.60 | 91.62 ± 0.74 % | 27.35 | 59.81 ± 0.65 | 66.65 ± 0.78 | 75.70 ± 0.62 | 80.76 ± 0.63 | 84.83 ± 0.62 % | 69.91 ± 1.30 | 71.76 ± 0.61 | 76.87 ± 1.27 % | 82.13 ± 0.20 ^⸸ % | 89.20 ± 0.23 | 20.29 | 64.78 ± 0.60 | 71.46 ± 0.53 | IC50, Inhibition of Acetylcholinesterase [3]: 5 µg/mL; DPPH Free Radical Scavenging Ability ([4]; Comp. Conc. 500 µg/mL): 77.68 ± 0.63 %; DPPH Free Radical Scavenging Ability ([4]; Comp. Conc. 1000 µg/mL): 85.72 ± 0.79 %; DPPH Free Radical Scavenging Ability [5]: 55.56 ± 0.52 % |
| O=C([O-])Cc1cccc(Cl)c1.O=C([O-])Cc1cccc(Cl)c1.O=C([O-])Cc1cccc(Cl)c1.O=C([O-])Cc1cccc(Cl)c1.Oc1ccncc1.Oc1ccncc1.[Cu+2].[Cu+2] [Complex 6, Cu2(3-ClC6H4COO)4(4-OHPy)2] | 42 | 57.00 ± 1.15 | 61.67 ± 0.89 | 65.00 ± 0.58 | 72.03 ± 0.23 | 75.33 ± 0.49 % | 10.65 | 61.35 ± 0.18 | 66.20 ± 0.15 | 73.42 ± 0.11 | 78.62 ± 0.17 | 83.53 ± 0.20 % | 58.74 ± 0.68 | 62.70 ± 1.25 | 67.05 ± 0.75 % | 72.32 ± 1.06 % | 77.34 ± 0.98 | 14.51 | 63.47 ± 0.49 | 68.75 ± 0.14 | DPPH Free Radical Scavenging Ability ([4]; Comp. Conc. 500 µg/mL): 75.59 ± 0.30 %; DPPH Free Radical Scavenging Ability ([4]; Comp. Conc. 1000 µg/mL): 80.85 ± 0.18 %; DPPH Free Radical Scavenging Ability [5]: 58.12 ± 0.34 % |
